# US20110071142A1, “IDENTIFICATION AND USE OF SMALL MOLECULES TO MODULATE TRANSCRIPTION FACTOR FUNCTION AND TO TREAT TRANSCRIPTION FACTOR ASSOCIATED DISEASES” (BETH ISRAEL DEACONESS MEDICAL CENTER, priority 2007, published 2011)
# Where two headings read alike, the source gives them in different places.
# Tests used:
# [1] = molecular target: T1, Ets-1-DNA interaction (Homo sapiens, UniProt P14921); assay: Electrophoretic mobility shift assay (EMSA) of Ets-1 DNA binding
# T1 construct: host or cells: cell-free in vitro translation, rabbit reticulocyte lysate
# T1 sequence (P14921 1-441): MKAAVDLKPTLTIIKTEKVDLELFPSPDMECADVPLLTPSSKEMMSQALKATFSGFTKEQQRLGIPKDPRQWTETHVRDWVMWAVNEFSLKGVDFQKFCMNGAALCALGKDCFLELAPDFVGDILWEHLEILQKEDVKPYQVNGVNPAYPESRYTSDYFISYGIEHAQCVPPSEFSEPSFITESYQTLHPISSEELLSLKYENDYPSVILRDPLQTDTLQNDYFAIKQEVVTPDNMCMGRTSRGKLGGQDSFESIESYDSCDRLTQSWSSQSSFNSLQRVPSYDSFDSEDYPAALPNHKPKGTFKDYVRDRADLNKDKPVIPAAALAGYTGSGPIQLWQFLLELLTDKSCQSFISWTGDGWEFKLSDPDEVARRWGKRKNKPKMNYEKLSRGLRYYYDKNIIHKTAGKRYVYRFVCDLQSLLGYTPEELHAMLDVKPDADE
# Protocol: Initially it is determined whether the identified small molecule “hits” interfere with Ets-1-DNA binding using electrophoretic mobility shift assays (EMSAs). These are performed as described previously (142). In brief, in vitro translated Ets-1 protein is generated using a rabbit reticulolysate system (Promega) and a mammalian expression plasmid encoding the Ets-1 protein. 1 μl of the in vitro translation reaction and 0.1-0.2
# ng [32P]dATP-labeled double-stranded oligonucleotide probe (5,000-10,000 cpm) will be run on 4% polyacrylamide gels containing 0.5×TBE buffer. […] The small molecules identified are initially evaluated at a concentration of 1 mM, which is the concentration used in high throughput fraganomic approaches for evaluating the interaction of weak-binding small molecules (143, 144). Those small molecules that inhibit the Ets-1-DNA interaction will be re-evaluated over a concentration range of 10 μM-1 mM. Solutions containing DMSO alone will be used as a vehicle control. To ensure the small molecule is specifically targeting the Ets-1-DNA interface and not interacting non-specifically with the DNA, a non-specific promoter is included as well as a control small molecule that is not selected as a “hit” by our HTD screen. To further confirm the molecular specificity of these small molecules for targeting Ets-1, EMSAs will be performed with other members of the ETS family. Ethidium bromide displacement assays could also be used to confirm that the small molecules are not nonspecifically targeting the DNA sequence (145).
# [2] = test system: Ets-1 transactivation; assay: Reporter gene transactivation assays (transient transfection); type: cell-based, Human
# Protocol: Several downstream targets of Ets-1 including the MCP-1 gene, PAI1, and Flt-1 (49, 142) have been identified. To further define the specificity of small molecules that inhibit DNA binding of Ets-1 in EMSAs, their ability is evaluated with regard to inhibiting transactivation of the MCP-1, PAI-1, and Flt-1 promoters by Ets-1, without affecting the basal activity of the promoter. As controls, the endothelial-specific promoters Tie1 and Tie2 are used, that have been previously shown as targets of the Ets factors NERF2 and Elf-1, but not Ets-1 or Ets-2 (142, 146). The promoters of these genes have previously been subcloned into the PGL2 luciferase reporter (Promega). Similarly, we have previously subcloned the
# cDNAs encoding the ETS factors Ets-1, Ets-2, NERF2, and Elf-1 into the PCI mammalian expression plasmid.
# Human embryonic kidney cells (HEK 293) are cultured as previously described (147). HEK 293 cells are kidney epithelial cells that express low basal levels of Ets-1, and are easily transfected. Cotransfections of 2×10^5 HEK 293 cells are carried out with 0.3 μg of the reporter gene construct DNA and 0.15 μg of the mammalian expression vector encoding the selected Ets factors using 4 μl LipofectAMINE (Invitrogen, San Diego, Calif.) as described (148). […]
# [3] = test system: Ets-1 mediated gene expression; assay: Ets-1 mediated gene expression in HEK293 cells; type: cell-based, Human
# [4] = test system: Ets-1 expression; assay: Real time PCR of IL-1 induced Ets-1 expression in HUVECs; type: cell-based, Human; conditions: 10 μM, preincubated 1 h, IL-1 10 ng/ml, 2 hr
# Protocol: (§1) SYBR Green I-based real-time PCR is carried out on an Opticon Monitor (MJ Research, Inc, Waltham, Mass.). All PCR mixtures contain PCR buffer [final concentration: 10 mM Tris-HCl (pH9.0), 50 mM KCl, 2 mM MgCl2 and 0.1% TritonX-100], 250 μM deoxy-NTP (Roche), 0.5 μM of each PCR primer, 0.5×SYBR Green I,
# (§2) 5% DMSO, and 1U Taq DNA polymerase (Promega, Madison, Wis.) with 2 μl cDNA in a 25 μl final volume of reaction mix. Then, the fluorescence signal is measured immediately following incubation at 78° C. for 5 s that follows each extension step, which eliminates possible primer dimer detection. At the end of PCR cycles, a melting curve will be generated to identify specificity of the PCR product. For each run, serial dilutions of human GAPDH plasmids are used as standards for quantitative measurement of the amount of amplified cDNA. For normalization of each sample, GAPDH primers are used to measure the GAPDH cDNA levels. Cytotoxicity Evaluation of “hit” Compounds Using MTS Assay
# (§3) Total RNA was isolated for real time PCR to measure Ets-1 expression levels as well as the IL-1 inducible, Ets-1
# (§4) dependent MCP-1 expression levels, following stimulation for 1, 2, 4, 6 and 12 hours. IL-1 induced Ets-1 expression ˜4 fold at 2 hr, however compound #28 reduced Ets-1 induction by greater than 50% during this time frame. […]
# [5] = test system: MCP-1 expression; assay: Real time PCR of IL-1 inducible, Ets-1 dependent MCP-1 expression in HUVECs; type: cell-based, Human; conditions: 10 μM, preincubated 1 h, IL-1 10 ng/ml
# Protocol: as §1, §2, §3, §4
compound,measurement,setting,value
"Nc1ccccc1SC(C[N+](=O)[O-])c1ccc2c(c1)OCO2 (stereo not shown) [Compound 28, 2-{[1-(1,3-benzodioxol-5-yl)-2-nitroethyl]thio}aniline]",inhibition of Ets-1 DNA binding,[1],inhibits Ets-1 DNA binding
same,"inhibits the Ets-1-DNA interaction, concentration range as estimated using EMSAs",[1],low uM range
same,inhibition of Ets-1 DNA binding,[1]; FIG. 8 legend: HUVECs preincubated with 10 μM,inhibits Ets-1 DNA binding
same,inhibition of transactivation assays,[2],8 fold
same,decrease of Ets-1 mediated gene expression,[3],50-60%
same,reduction of IL-1 induced Ets-1 induction,[4],greater than 50%
same,reduction of IL-1 induced MCP-1 expression,[5],greater than 40%
